The results in this text go back to patent US10961309B2, “Reducing systemic regulatory T cell levels or activity for treatment of disease and injury of the CNS” (Yeda Research and Development Co. Ltd, priority 2014, dated 2021).

Entries after “also recorded” stand apart in the source; their conditions may differ.

Holding throughout (assay type): in vivo, mouse
Test [1] deals with CD11bhigh/CD45high mo-MΦ, CD4+ T cells, Foxp3+ Tregs in the brain. The test can be described thus: Flow cytometry of brain parenchyma / hippocampus. On the procedure:
Mice were transcardially perfused with PBS, and tissues were treated as previously described (Baruch et al, 2013). Brains were dissected and the different brain regions were removed under a dissecting microscope (Stemi DV4; Zeiss) in PBS, and tissues were dissociated using the gentleMACS™ dissociator (Miltenyi Biotec). Choroid plexus tissues were isolated from the lateral, third and fourth ventricles of the brain, incubated at 37° C. for 45 min in PBS (with Ca^2+/Mg^2+) containing 400 U/ml collagenase type IV (Worthington Biochemical Corporation), and then manually homogenized by pipetting. Spleens were mashed with the plunger of a syringe and treated with ACK (ammonium chloride potassium) lysing buffer to remove erythrocytes. In all cases, samples were stained according to the manufacturers' protocols. All samples were filtered through a 70 μm nylon mesh, and blocked with anti-Fc CD16/32 (1:100; BD Biosciences). For intracellular staining of IFN-γ, the cells were incubated with […] (10 ng/ml; Sigma-Aldrich) and ionomycin (250 ng/ml; Sigma-Aldrich) for 6 h, and Brefeldin-A (10 μg/ml; Sigma-Aldrich) was added for the last 4 h. Intracellular labeling of cytokines was done with BD Cytofix/Cytoperm™ Plus fixation/permeabilization kit (cat. no. 555028). For Treg staining, an eBioscience FoxP3 staining buffer set (cat. no. 00-5523-00) was used. The following fluorochrome-labeled monoclonal antibodies were purchased from BD Pharmingen, BioLegend, R&D Systems, or eBiosciences, and used according to the manufacturers' protocols: PE or Alexa Fluor 450-conjugated anti-CD4; PE-conjugated anti-CD25; PerCP-Cy5.5-conjugated anti-CD45; FITC-conjugated anti-TCRβ; APC-conjugated anti-IFN-γ; APC-conjugated anti-FoxP3; Brilliant-violet-conjugated anti-CD45. Cells were analyzed on an LSRII cytometer (BD Biosciences) using FlowJo software. In each experiment, relevant negative control groups, positive controls, and single stained samples for each tissue were used to identify the populations of interest and to exclude other populations.

Test [2] deals with hippocampal cytokine and neurotropic factor mRNA. In words: Brain parenchyma / hippocampus mRNA expression by RT-qPCR. On the procedure: Total RNA of the hippocampal dentate gyrus (DG) was extracted with TRI Reagent (Molecular Research Center) and purified from the lysates using an RNeasy Kit (Qiagen). Total RNA of the choroid plexus was extracted using an RNA MicroPrep Kit (Zymo Research). mRNA (1 μg) was converted into cDNA using a High Capacity cDNA Reverse Transcription Kit (Applied Biosystems). The expression of specific mRNAs was assayed using fluorescence-based quantitative real-time PCR (RT-qPCR). RT-qPCR reactions were performed using Fast-SYBR PCR Master Mix (Applied Biosystems). Quantification reactions were performed in triplicate for each sample using the standard curve method. Peptidylprolyl isomerase A (ppia) was chosen as a reference (housekeeping) gene. The amplification cycles were 95° C. for 5 s, 60° C. for 20 s, and 72° C. for 15 s. At the end of the assay, a melting curve was constructed to evaluate the specificity of the reaction. For ifn-γ and ppia gene analysis, the cDNA was pre-amplified in 14 PCR cycles with non-random PCR primers, thereby increasing the sensitivity of the subsequent real-time PCR analysis, according to the manufacturer's protocol (PreAmp Master Mix Kit; Applied Biosystems). mRNA expression was determined using TaqMan RT-qPCR, according to the manufacturer's instructions (Applied Biosystems). All RT-qPCR reactions were performed and analyzed using StepOne software V2.2.2 (Applied Biosystems). The following TaqMan Assays-on-Demand™ probes were used: Mm02342430_g1 (ppia) and Mm01168134_m1 (ifn-γ).
For all other genes examined, the following primers were used: […]

The subject of test [3] is 5XFAD AD-Tg mice. In words: Morris water maze (MWM). On the procedure:
Mice were given three trials per day, for 4 consecutive days, to learn to find a hidden platform located 1.5 cm below the water surface in a pool (1.1 m in diameter). The water temperature was kept between 21-22° C. Water was made opaque with milk powder. Within the testing room, only distal visual shape and object cues were available to the mice to aid in location of the submerged platform. The escape latency, i.e., the time required to find and climb onto the platform, was recorded for up to 60 s. Each mouse was allowed to remain on the platform for 15 s and was then removed from the maze to its home cage. […] The inter-trial interval for each mouse was 10 min. On day 5, the platform was removed, and mice were given a single trial lasting 60 s without available escape. On days 6 and 7, the platform was placed in the quadrant opposite the original training quadrant, and the mouse was retrained for three sessions each day. Data were recorded using the EthoVision V7.1 automated tracking system (Noldus Information Technology). Statistical analysis was performed using analysis of variance (ANOVA) and the Bonferroni post-hoc test. All MWM testing was performed between 10 a.m. and 5 p.m. during the lights-off phase.

The mark [4] stands for this setting: AD-Tg/DTR+ mice, 3 weeks after last DTx injection.
[5] abbreviates: weekly-GA vs untreated AD-Tg mice, age 6 m.

Regarding Diphtheria toxin [DTx], in test [1] (setting [4]), the “Foxp3+ Tregs among CD4+ T cells in the brain” value is “marked enrichment”; the “numbers of CD45high/CD11bhigh mo-MΦ and CD4+ T cells in brain parenchyma” value is recorded as “increased numbers; also recorded: elevated numbers”. For the same substance, the “mRNA expression levels of pro-inflammatory cytokines (il-12p40, tnf-α)” value in test [2] (AD-Tg/DTR+ mice, brain parenchyma, 3 weeks after last DTx injection) is “reduced mRNA expression levels”. The “foxp3 and il10 mRNA expression” value in test [2] (AD-Tg/DTR+ mice, hippocampus, 3 weeks after last DTx injection) is on record as “increased expression”. For the same substance, the “spatial learning and memory (MWM)” value in test [3] (AD-Tg/DTR+ vs DTx-treated AD-Tg/DTR− mice, 3 weeks after last DTx injection) was “better spatial learning/memory performance; also recorded: significant improvement in spatial learning and memory”.
Glatiramer acetate [GA]: the “numbers of CD11bhighCD45high-expressing cells in the hippocampus” value in test [1] (weekly-GA, AD-Tg non-chimeric mice, 2nd week of regimen) is recorded as “increased numbers”. The neuroinflammation result in test [2] (weekly-GA 100 μg s.c. over 4 weeks, 5XFAD AD-Tg mice, hippocampus) is recorded as “reduced neuroinflammation”. In test [2] (setting [5]), the “hippocampal mRNA of anti-inflammatory cytokines IL-10 and TGF-β” value is “elevation”; the “hippocampal mRNA of neurotropic factors IGF-1 and BDNF” value is listed as “elevation”; the “hippocampal mRNA of pro-inflammatory cytokines TNF-α, IL-1β and IL-12p40” value is listed as “reduced expression”. Moreover, in test [3] (weekly-GA vs vehicle (PBS), AD-Tg mice, age 6 m), the “spatial learning/memory performance in acquisition, probe and reversal phases of the MWM” value was “better spatial learning/memory performance”. In addition, in test [3] (weekly-GA, 5XFAD AD-Tg mice, MWM 1 week, RAWM 1 and 2 months after last injection), the cognitive performance result is recorded as “improved cognitive performance”.
